From PubChem BioAssay AID743076

Test system: P. falciparum blood stage, IPP rescue, flow cytometry 72 h
Experiment: IPP rescue of P. falciparum growth inhibition, mechanism study for antimalarial apicoplast targeting, P. falciparum blood stage (AID 743076)
Settings: at 5 µM; hits give high values

Q: With `O=C(O)C1Cc2c([nH]c3ccccc23)C(c2ccc(Cl)cc2Cl)N1` (stereo unspecified) as the molecule, how does the parasitemia ratio IPP rescue/non-rescue read?
A: 6.32
